Experimental data taken from ChEMBL document CHEMBL2311291, “Novel P2 tris-tetrahydrofuran group in antiviral compound 1 (GRL-0519) fills the S2 binding pocket of selected mutants of HIV-1 protease” (J Med Chem, 2013).

Key:
[1] = target: Human immunodeficiency virus type 1 protease (Human immunodeficiency virus 1, UniProt Q72874, I54M); test: Inhibition of HIV-1 protease I54M mutant using Abz-Thr-Ile-Nle-p-nitro-Phe-Gln-Arg-NH2 as substrate incubated for 5 mins prior to substrate addition measured for 5 mins by fluorescence assay
[2] = target: Human immunodeficiency virus type 1 protease (Human immunodeficiency virus 1, UniProt Q72874, I50V); test: Inhibition of HIV-1 protease I50V mutant using Abz-Thr-Ile-Nle-p-nitro-Phe-Gln-Arg-NH2 as substrate incubated for 5 mins prior to substrate addition measured for 5 mins by fluorescence assay
[3] = target: Human immunodeficiency virus type 1 protease (Human immunodeficiency virus 1, UniProt Q72874, D30N); test: Inhibition of HIV-1 protease D30N mutant using Abz-Thr-Ile-Nle-p-nitro-Phe-Gln-Arg-NH2 as substrate incubated for 5 mins prior to substrate addition measured for 5 mins by fluorescence assay
[4] = target: Human immunodeficiency virus type 1 protease (Human immunodeficiency virus 1, UniProt Q72874, R8Q); test: Inhibition of HIV-1 protease R8Q mutant using Abz-Thr-Ile-Nle-p-nitro-Phe-Gln-Arg-NH2 as substrate incubated for 5 mins prior to substrate addition measured for 5 mins by fluorescence assay
[5] = target: Protease (Human immunodeficiency virus 1, UniProt Q9YQ12); test: Inhibition of HIV-1 wildtype protease using Abz-Thr-Ile-Nle-p-nitro-Phe-Gln-Arg-NH2 as substrate incubated for 5 mins prior to substrate addition measured for 5 mins by fluorescence assay
Protease, sequence (Q9YQ12 whole entry): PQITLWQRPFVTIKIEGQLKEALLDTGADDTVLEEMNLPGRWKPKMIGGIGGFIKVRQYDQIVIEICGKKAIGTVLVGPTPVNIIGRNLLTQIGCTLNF

[6] = test system: Human immunodeficiency virus 1; test: Ratio of Ki for HIV-1 protease V82A mutant to Ki for HIV-1 wildtype protease
[7] = test system: Human immunodeficiency virus 1; test: Ratio of Ki for HIV-1protease I54M mutant to Ki for HIV-1 wildtype protease
[8] = test system: Human immunodeficiency virus 1; test: Ratio of Ki for HIV-1 protease D30N mutant to Ki for HIV-1 wildtype protease
[9] = test system: Human immunodeficiency virus 1; test: Ratio of Ki for HIV-1 protease I50V mutant to Ki for HIV-1 wildtype protease
[10] = target: Human immunodeficiency virus type 1 protease (Human immunodeficiency virus 1, UniProt Q72874, V82A); test: Inhibition of HIV-1 protease V82A mutant using Abz-Thr-Ile-Nle-p-nitro-Phe-Gln-Arg-NH2 as substrate incubated for 5 mins prior to substrate addition measured for 5 mins by fluorescence assay
[11] = test system: Human immunodeficiency virus 1; test: Ratio of Ki for HIV-1 protease R8Q mutant to Ki for HIV-1 wildtype protease

## COc1ccc(S(=O)(=O)N(CC(C)C)C[C@@H](O)[C@H](Cc2ccccc2)NC(=O)O[C@H]2CO[C@H]3O[C@@H]4OCC[C@@H]4[C@H]32)cc1
[1]
  Ki: 3.5 nM
[2]
  Ki: 30.9 nM
[3]
  Ki: 8.9 nM
[4]
  Ki: 1.2 nM
[5]
  Ki: 0.5 nM
[6]
  Ratio Ki: 6
[7]
  Ratio Ki: 7
[8]
  Ratio Ki: 18
[9]
  Ratio Ki: 60
[10]
  Ki: 3.2 nM
[11]
  Ratio Ki: 2
